In the supplement of paper PMC12137928:
Structures can show the parent of a compound that is named as a salt.

Columns and labels:
HCT116 [1] = assay: efficacy (maximum % inhibition of viability vs DMSO); higher = more cytotoxic; conditions: 72 h
Procedure, shortened: (§1)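 After seeding at 250 cells per well in 1536-well plates, HCT116 cells were given 5 h to attach. CellTiter-Glo luminescence, scaled to 0% for vehicle and -100% for positive control, was pattern-corrected. Fitting with a four-parameter Hill model produced IC50 and maximal efficacy.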

HCT116 [2] = conditions: 72 h
Procedure, shortened: as §1

Row | Structure (SMILES) | IC50 cell viability (HCT116 [2]; ICRF193 0 nM) [µM] | IC50 cell viability (HCT116 [2]; ICRF193 200 nM) [µM] | efficacy (HCT116 [1]; ICRF193 0 nM) [%] | efficacy (HCT116 [1]; ICRF193 200 nM) [%]
1 | CCC[C@H](NC(=O)[C@@H]1[C@H]2CCC[C@H]2CN1C(=O)[C@@H](NC(=O)[C@@H](NC(=O)c1cnccn1)C1CCCCC1)C(C)(C)C)C(=O)C(=O)NC1CC1 [Telaprevir (VX-950)] | 20.6 | 29.1 | 80.7 | 74.5
2 | Oc1cccc(-c2c3nc(c(-c4cccc(O)c4)c4ccc([nH]4)c(-c4cccc(O)c4)c4nc(c(-c5cccc(O)c5)c5ccc2[nH]5)CC4)C=C3)c1 [Temoporfin] | > 45.8 | 25.9 | – | 46
3 | CO[C@H]1C[C@@H]2CC[C@@H](C)[C@@](O)(O2)C(=O)C(=O)N2CCCC[C@H]2C(=O)O[C@H]([C@H](C)C[C@@H]2CC[C@@H](OC(=O)C(C)(CO)CO)[C@H](OC)C2)CC(=O)[C@H](C)/C=C(\C)[C@@H](O)[C@@H](OC)C(=O)[C@H](C)C[C@H](C)/C=C/C=C/C=C/1C [Temsirolimus] | 14.2 | 15.9 | 74.5 | 79
4 | COc1cc([C@@H]2c3cc4c(cc3[C@@H](O[C@@H]3O[C@@H]5CO[C@@H](c6cccs6)O[C@H]5[C@H](O)[C@H]3O)[C@H]3COC(=O)[C@H]23)OCO4)cc(OC)c1O [Teniposide] | 2.31 | 1.83 | 92 | 103
5 | COc1ccc(-n2nc(CCC(=O)N(C)O)cc2-c2ccc(Cl)cc2)cc1 [Tepoxalin] | 16.4 | 16.4 | 93.4 | 88.3
6 | CN(C)C(=S)SC(=S)N(C)C [Tetramethylthiuram monosulfide] | > 45.8 | 3.66 | – | 40.7
7 | OC[C@H]1O[C@@H](n2cnc3c(S)ncnc32)[C@H](O)[C@@H]1O [Thioinosine] | 3.26 | 3.66 | 95.1 | 93.2
8 | CSc1ccc2c(c1)N(CCC1CCCCN1C)c1ccccc1S2 (centres undefined) [Thioridazine] | 23.1 | 18.3 | 115 | 95
9 | C=C(NC(=O)C(=C)NC(=O)c1csc(C2=N[C@@H]3c4csc(n4)[C@H]4NC(=O)c5csc(n5)[C@H]([C@](C)(O)[C@@H](C)O)NC(=O)[C@H]5CSC(=N5)/C(=C/C)NC(=O)[C@H]([C@@H](C)O)NC(=O)c5csc(n5)[C@]3(CC2)NC(=O)[C@H](C)NC(=O)C(=C)NC(=O)[C@H](C)NC(=O)[C@H]([C@@H](C)CC)N[C@@H]2C=Cc3c([C@H](C)O)cc(nc3[C@H]2O)C(=O)O[C@@H]4C)n1)C(N)=O [Thiostrepton] | > 45.8 | 5.17 | – | 58.6
10 | CN(C)C(=S)SSC(=S)N(C)C [Thiram] | > 45.8 | 29.1 | – | 82.8
11 | CCCSc1nc(N[C@@H]2C[C@H]2c2ccc(F)c(F)c2)c2nnn([C@@H]3C[C@H](OCCO)[C@@H](O)[C@H]3O)c2n1 [Ticagrelor] | 29.1 | 18.3 | 77.1 | 92.6
12 | Clc1ccc(C(Cn2ccnc2)OCc2ccsc2Cl)c(Cl)c1 (centres undefined) [Tioconazole] | 20.6 | 18.3 | 102 | 91.7
13 | Cn1cncc1[C@@](N)(c1ccc(Cl)cc1)c1ccc2c(c1)c(-c1cccc(Cl)c1)cc(=O)n2C [Tipifarnib] | 20.6 | 23.1 | 118 | 126
14 | Cc1[nH]c(/C=C2\C(=O)Nc3ccc(F)cc32)c(C)c1C(=O)NCCN1CCCC1 [Toceranib] | 8.96 | 8.96 | 102 | 94.9
15 | Cc1cc(-n2c(=O)[nH]c(=O)n(C)c2=O)ccc1Oc1ccc(S(=O)(=O)C(F)(F)F)cc1 [Toltrazuril (sulfone)] | 7.3 | > 45.8 | 44.9 | –
16 | CC[C@@]1(O)C(=O)OCc2c1cc1n(c2=O)Cc2cc3c(CN(C)C)c(O)ccc3nc2-1 [Topotecan hydrochloride] | 0.73 | 0.206 | 94.2 | 102
17 | COc1cc2c(cc1O)CCN[C@]21CS[C@@H]2c3c(OC(C)=O)c(C)c4c(c3[C@H](COC1=O)N1[C@@H]2[C@H]2c3c(cc(C)c(OC)c3O)C[C@@H]([C@@H]1O)N2C)OCO4 [Trabectedin] | 0.0119 | 0.00473 | 57.2 | 74.4

Row | Structure (SMILES) | IC50 cell viability (HCT116 [2]; ICRF193 0 nM) [µM] | IC50 cell viability (HCT116 [2]; ICRF193 200 nM) [µM] | efficacy (HCT116 [1]; ICRF193 0 nM) [%] | efficacy (HCT116 [1]; ICRF193 200 nM) [%]
18 | CC(=O)Nc1cccc(-n2c(=O)n(C3CC3)c(=O)c3c(Nc4ccc(I)cc4F)n(C)c(=O)c(C)c32)c1 [Trametinib] | 0.259 | 0.0206 | 92.3 | 82.8
19 | Oc1cc(Cl)ccc1Oc1ccc(Cl)cc1Cl [Triclosan] | 16.4 | 18.3 | 92.5 | 95.2
20 | CC(CN(C)C)CN1c2ccccc2Sc2ccc(C(F)(F)F)cc21 (centres undefined) [Trifluomeprazine 2-butenedioate] | 16.4 | 18.3 | 40.2 | 49.5
21 | O=c1[nH]c(=O)n([C@H]2C[C@H](O)[C@@H](CO)O2)cc1C(F)(F)F [Trifluridine] | 29.1 | 8.2 | 49.1 | 59
22 | COc1cc(NCc2ccc3nc(N)nc(N)c3c2C)cc(OC)c1OC [Trimetrexate] | 1.16 | 0.92 | 102 | 90.7
23 | N[C@@H]1[C@H]2CN(c3nc4c(cc3F)c(=O)c(C(=O)O)cn4-c3ccc(F)cc3F)C[C@@H]12 [Trovafloxacin mesylate] | 29.1 | 20.6 | 52.4 | 65.3
24 | CC[C@H]1OC(=O)C[C@@H](OC(C)=O)[C@H](C)[C@@H](O[C@@H]2O[C@H](C)[C@@H](O[C@H]3C[C@@](C)(O)[C@@H](OC(=O)CC(C)C)[C@H](C)O3)[C@H](N(C)C)[C@H]2O)[C@@H](CC=O)C[C@@H](C)C(=O)/C=C/C(C)=C/[C@@H]1CO[C@@H]1O[C@H](C)[C@@H](O)[C@@H](OC)[C@H]1OC [Tylvalosin] | > 45.8 | 18.3 | – | 53.7
25 | CCCCC(=O)OCC(=O)[C@]1(O)Cc2c(O)c3c(c(O)c2[C@@H](O[C@H]2C[C@H](NC(=O)C(F)(F)F)[C@H](O)[C@H](C)O2)C1)C(=O)c1c(OC)cccc1C3=O [Valrubicin] | 3.66 | 2.31 | 90.1 | 97.8
26 | c1cnc2cc3c(cc2n1)[C@@H]1CNC[C@H]3C1 [Varenicline tartrate] | > 45.8 | 29.1 | – | 80.4
27 | CC[C@]1(O)C[C@@H]2CN(CCc3c([nH]c4ccccc34)[C@@](C(=O)OC)(c3cc4c(cc3OC)N(C)[C@H]3[C@@](O)(C(=O)OC)[C@H](OC(C)=O)[C@]5(CC)C=CCN6CC[C@]43[C@@H]65)C2)C1 [Vinblastine sulfate] | 0.082 | 0.058 | 75.8 | 82.2
28 | CC[C@]1(O)C[C@H]2CN(CCc3c([nH]c4ccccc34)[C@@](C(=O)OC)(c3cc4c(cc3OC)N(C=O)[C@H]3[C@@](O)(C(=O)OC)[C@H](OC(C)=O)[C@]5(CC)C=CCN6CC[C@]43[C@@H]65)C2)C1 [Vincristine] | 0.164 | 0.183 | 70.2 | 63.5
29 | CC[C@]1(O)C[C@@H]2CN(CCc3c([nH]c4ccccc34)[C@@](C(=O)OC)(c3cc4c(cc3OC)N(C)[C@H]3[C@@](O)(C(N)=O)[C@H](O)[C@]5(CC)C=CCN6CC[C@]43[C@@H]65)C2)C1 [Vindesine sulfate salt] | 0.058 | 0.058 | 75.5 | 69.2
30 | CC[C@]12C=CCN3CC[C@@]4(c5cc([C@@]6(C(=O)OC)C[C@@H]7C[C@@H](C(C)(F)F)CN(Cc8c6[nH]c6ccccc86)C7)c(OC)cc5N(C)[C@H]4[C@@](O)(C(=O)OC)[C@@H]1OC(C)=O)[C@@H]32 [Vinflunine (Tartrate)] | 0.73 | > 45.8 | 60.1 | –
31 | CCC1=C[C@@H]2CN(C1)Cc1c([nH]c3ccccc13)[C@@](C(=O)OC)(c1cc3c(cc1OC)N(C)[C@H]1[C@@](O)(C(=O)OC)[C@H](OC(C)=O)[C@]4(CC)C=CCN5CC[C@]31[C@@H]54)C2 [Vinorelbine tartrate] | 0.0651 | 0.058 | 64.9 | 72.3
32 | [O-][n+]1ccccc1[S-].[O-][n+]1ccccc1[S-].[Zn+2] [Zinc pyrithione] | 4.61 | 2.06 | 107 | 102
33 | O[C@@H](COc1cccc2ncccc12)CN1CCN([C@@H]2c3ccccc3[C@@H]3[C@H](c4ccccc42)C3(F)F)CC1 [Zosuquidar trihydrochloride] | 23.1 | 20.6 | 141 | 105

Continued, in another order:

Row | IC50 cell viability (HCT116 [2]; ICRF193 0 nM) [µM] | IC50 cell viability (HCT116 [2]; ICRF193 200 nM) [µM] | Structure (SMILES) | efficacy (HCT116 [1]; ICRF193 0 nM) [%] | efficacy (HCT116 [1]; ICRF193 200 nM) [%]
34 | 13 | 11.6 | C/C(O)=C(\C#N)C(=O)Nc1ccc(C(F)(F)F)cc1 [Teriflunomide] | 51.8 | 46.2
35 | 29.1 | 20.6 | CCSc1ccc2c(c1)N(CCCN1CCN(C)CC1)c1ccccc1S2 [Thiethylperazine dimalate] | 102 | 101
36 | > 45.8 | 20.6 | CN1CCN(CCCN2c3ccccc3Sc3ccc(S(=O)(=O)N(C)C)cc32)CC1 [Thioproperazine dimethanesulfonate] | – | 46.2
37 | 18.3 | 4.61 | CCCCCCCCCCCCCCCC[N+](C)(C)CCN(Cc1ccc(OC)cc1)c1ncccn1 [Thonzonium bromide] | 120 | 89.7
38 | > 45.8 | 18.3 | O=C(CCCN1CCC(n2c(=S)[nH]c3ccccc32)CC1)c1ccc(F)cc1 [Timiperone] | – | 46.1
39 | 29.1 | 29.1 | CC(C)C(=O)OCc1cccc(OC(=O)[C@@H]2N3C(=O)[C@@H](NC(=O)Cc4ccccc4)[C@H]3SC2(C)C)c1 [Tobicillin] | 122 | 103
40 | > 45.8 | 29.1 | Cc1ccc(C(=O)c2cc(O)c(O)c([N+](=O)[O-])c2)cc1 [Tolcapone] | – | 84.9
41 | 20.6 | 29.1 | CN(C)CCOc1ccc(/C(=C(/CCCl)c2ccccc2)c2ccccc2)cc1 [Toremifene citrate] | 128 | 104
42 | 14.6 | 20.6 | CC(C)OC(=O)CCC/C=C\C[C@@H]1[C@@H](/C=C/[C@@H](O)COc2cccc(C(F)(F)F)c2)[C@H](O)C[C@@H]1O [Travoprost] | 87.4 | 96.5
43 | 29.1 | 29.1 | Nc1nc(N)c2nc(-c3ccccc3)c(N)nc2n1 [Triamterene] | 95.4 | 92.7
44 | 29.1 | 18.3 | CCOC1O[C@H]([C@@H](COCc2ccccc2)OCc2ccccc2)[C@H](OCc2ccccc2)[C@H]1O (some centres undefined) [Tribenoside] | 106 | 92.1
45 | 18.3 | 13 | O=C(Nc1ccc(Cl)cc1)Nc1ccc(Cl)c(Cl)c1 [Triclocarban] | 102 | 104
46 | > 45.8 | 18.3 | CCCCCCCC(=O)CC[C@@H]1[C@@H](C/C=C\CCCC(=O)OC(C)C)[C@@H](O)C[C@H]1O [Unoprostone isopropyl ester] | – | 42.2
47 | > 45.8 | 29.1 | CCCCC(=O)O [Valeric acid] | – | 62
48 | 3.66 | 2.31 | O=C(CCCCCCC(=O)Nc1ccccc1)NO [Vorinostat (SAHA)] | 109 | 101
